SMILES strings stand for the structures.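 48-hour exposure; five concentrations; linearly interpolated endpoints. Here, GI50 denotes the concentration required for 50% inhibition of growth.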 Calls of active or inactive are those of the source. Cut-off read from the data, not from the text of the source: active = GI50 up to about 1.1 µM and inactive = higher.

Some test systems named below: A498; A549; CAKI-1; DU-145; HCT-15; HT-29; KM12; LOX IMVI; MDA-MB-231; Malme-3M; NCI/ADR-RES; PC-3; SK-MEL-28; SK-OV-3; SNB-19; SNB-75; SR; T47D; TK-10; UO-31.
Experiment in all cases: growth of human tumour cells (NCI), 48 h

Regarding `COc1cc(C(=O)O)c([N+](=O)[O-])c(OC)c1OC`, the GI50 with A498 is > 100 µM (inactive); in the assay with A549, > 100 µM (inactive); with CAKI-1 it was > 100 µM (inactive); in the assay on DU-145, > 100 µM (inactive); in the assay with HCT-15 it was over 100 µM; in the assay with HT-29, > 100 µM (inactive). Besides, the GI50 in the assay on KM12, in the assay with LOX IMVI, in the assay with MDA-MB-231, in the assay with Malme-3M, in the assay with NCI/ADR-RES and in the assay with PC-3 was > 100 µM (inactive) in each case. Besides, the GI50 with SK-MEL-28, in the assay with SK-OV-3, with SNB-19, in the assay with SNB-75, in the assay with SR and in the assay on T47D was > 100 µM (inactive) each time. In addition, the GI50 in the assay with TK-10 and in the assay with UO-31 was > 100 µM (inactive) throughout.
Consider `COc1ccc(N2C(=O)C3c4[nH]c5ccc(OCc6ccccc6)cc5c4C4CCC(C(C)C)CC4C3C2=O)cc1` (stereo not given), for which the GI50 is 5.71 µM (inactive) in the assay on A498; 50.6 µM (inactive) in the assay on A549; > 30.7 µM (inactive) in the assay with CAKI-1; > 100 µM (inactive) with DU-145; over 100 µM with HCT-15; > 100 µM (inactive) in the assay with HT-29. For the same compound, the GI50 in the assay with KM12 was > 100 µM (inactive); in the assay on LOX IMVI it was 80.5 µM (inactive); in the assay on MDA-MB-231, 10.5 µM (inactive); in the assay with Malme-3M, 21 µM (inactive); in the assay with NCI/ADR-RES, 30.2 µM (inactive); with PC-3, > 89.9 µM (inactive). In addition, the GI50 with SK-MEL-28 was > 100 µM (inactive); with SK-OV-3, 17.7 µM (inactive); in the assay with SNB-19 it was 9.33 µM (inactive); in the assay with SNB-75 it was 2.23 µM (inactive); with SR it was 4.41 µM (inactive); in the assay with T47D, 33.2 µM (inactive). Further, the GI50 is > 30.3 µM (inactive) in the assay with TK-10 and > 57.1 µM (inactive) with UO-31.
In the case of `COC(=O)C1CC2C=CC1N(C(=O)OCc1ccccc1)C2` (stereo not given), the GI50 in the assay on A498 is > 100 µM (inactive); with A549 it was > 100 µM (inactive); in the assay on CAKI-1 it was > 100 µM (inactive); in the assay on DU-145, > 100 µM (inactive); in the assay with HCT-15, over 100 µM; in the assay on HT-29 it was > 100 µM (inactive). In addition, the GI50 is > 100 µM (inactive) in the assay with KM12; > 100 µM (inactive) in the assay with LOX IMVI; > 100 µM (inactive) in the assay with MDA-MB-231; 26 µM (inactive) with Malme-3M; > 100 µM (inactive) in the assay on NCI/ADR-RES; > 100 µM (inactive) in the assay on PC-3. For the same compound, the GI50 is > 100 µM (inactive) with SK-MEL-28; > 100 µM (inactive) in the assay with SK-OV-3; > 100 µM (inactive) with SNB-19; > 100 µM (inactive) in the assay with SNB-75; 59.3 µM (inactive) with SR; 85.7 µM (inactive) in the assay on T47D. For the same compound, the GI50 with TK-10 and in the assay on UO-31 was > 100 µM (inactive) each time.
In the case of `CC(=O)/C(=C(/Br)I)c1ccccc1`, the GI50 is 14.5 µM (inactive) with A498; 20 µM (inactive) in the assay with A549; 3.03 µM (inactive) in the assay on CAKI-1; 15.8 µM (inactive) in the assay on DU-145; 4.32 µM with HCT-15; 4.06 µM (inactive) in the assay with HT-29. Also, the GI50 with KM12 is 14.8 µM (inactive); with LOX IMVI, 9.84 µM (inactive); in the assay on MDA-MB-231, 13.2 µM (inactive); in the assay with Malme-3M, 10.9 µM (inactive); in the assay with NCI/ADR-RES, 9.35 µM (inactive); in the assay with PC-3, 16.8 µM (inactive). The GI50 is 11.2 µM (inactive) in the assay on SK-MEL-28; 28.6 µM (inactive) with SK-OV-3; 17.3 µM (inactive) in the assay on SNB-19; 14.2 µM (inactive) with SNB-75; 1.94 µM (inactive) with SR; 3.48 µM (inactive) in the assay on T47D. Moreover, the values for the GI50 with TK-10 and in the assay on UO-31 were 21 µM (inactive) and 12.4 µM (inactive), respectively.
As for `C=C1[C@@H](O)C[C@@]23CC[C@@H]4[C@@]5(C)CC[C@@H](OC(C)=O)C(C)(C)[C@@H]5C[C@@H](OC5OC(COC(C)=O)C(O)C(O)C5O)[C@@]4(C)C2=CC[C@H]3[C@H]1C` (stereo not given in full), the GI50 in the assay on A498 is 9.73 µM (inactive); with A549 it was 4.49 µM (inactive); with CAKI-1, 13.1 µM (inactive); in the assay on DU-145, 10.5 µM (inactive); with HCT-15 it was 12.4 µM; with HT-29, 2.1 µM (inactive). In addition, the GI50 is 2.1 µM (inactive) in the assay with KM12; 3.01 µM (inactive) with LOX IMVI; 5.47 µM (inactive) in the assay with MDA-MB-231; 9.48 µM (inactive) with Malme-3M; 17.5 µM (inactive) in the assay with NCI/ADR-RES; 3.66 µM (inactive) in the assay on PC-3. For the same compound, the GI50 in the assay with SK-MEL-28 is 7.35 µM (inactive); with SK-OV-3, 13.1 µM (inactive); in the assay on SNB-19 it was 4.93 µM (inactive); with SNB-75 it was 3.96 µM (inactive); with SR it was 2.33 µM (inactive); in the assay with T47D, 5.09 µM (inactive). Also, the figures for the GI50 in the assay with TK-10 and with UO-31 were 8.41 µM (inactive) and 14.1 µM (inactive), respectively.
For `C=C(C)[C@@]1(O)CCCC[C@@H]1CC(Sc1ccccc1)Sc1ccccc1`, the GI50 in the assay on A498 is 29.9 µM (inactive); in the assay with A549 it was 13.9 µM (inactive); with CAKI-1 it was 14.9 µM (inactive); with DU-145, 15.7 µM (inactive); in the assay with HCT-15, 15 µM; in the assay on HT-29, 18.2 µM (inactive). Also, the GI50 is 14.2 µM (inactive) in the assay with KM12; 14.6 µM (inactive) in the assay on LOX IMVI; 17.1 µM (inactive) in the assay with MDA-MB-231; 12.6 µM (inactive) in the assay with Malme-3M; 16.3 µM (inactive) in the assay with NCI/ADR-RES; 16.3 µM (inactive) in the assay on PC-3. Further, the GI50 was 18.1 µM (inactive) in the assay on SK-MEL-28; 19.6 µM (inactive) with SK-OV-3; 18.5 µM (inactive) in the assay on SNB-19; 16 µM (inactive) in the assay with SNB-75; 14.1 µM (inactive) in the assay on SR; 12.4 µM (inactive) in the assay with T47D. The GI50 in the assay with TK-10 is 15.5 µM (inactive); in the assay with UO-31, 16 µM (inactive).
With `COC1(OC)C2(Cl)CCC1(Cl)C(OC(C)=O)C2` (stereo not given), the GI50 in the assay on A498 was > 100 µM (inactive); in the assay on A549 it was > 100 µM (inactive); in the assay on CAKI-1 it was > 100 µM (inactive); in the assay on DU-145 it was > 100 µM (inactive); in the assay on HCT-15, over 100 µM; with HT-29, > 100 µM (inactive). In addition, the GI50 in the assay on KM12, with LOX IMVI, with MDA-MB-231, in the assay on Malme-3M, with NCI/ADR-RES and in the assay on PC-3 was > 100 µM (inactive) each time. The GI50 in the assay on SK-MEL-28, in the assay on SK-OV-3, in the assay on SNB-19, with SNB-75, in the assay on SR and in the assay with T47D was > 100 µM (inactive) in each case. Besides, the GI50 in the assay on TK-10 and with UO-31 was > 100 µM (inactive) throughout.
Consider `CCSC(=O)/C=C1\CN(C(=O)OC(C)(C)C)C1C(=O)OC(C)(C)C` (stereo not given), for which the GI50 is 11.2 µM (inactive) with A498; 12.1 µM (inactive) in the assay on A549; 6.56 µM (inactive) with CAKI-1; 4.95 µM (inactive) in the assay with DU-145; 1.52 µM with HCT-15; 4.23 µM (inactive) in the assay with HT-29. The GI50 was 3.38 µM (inactive) in the assay on KM12; 1.45 µM (inactive) with LOX IMVI; 4.29 µM (inactive) with MDA-MB-231; 1.95 µM (inactive) with Malme-3M; 2.74 µM (inactive) in the assay on NCI/ADR-RES; 4.94 µM (inactive) in the assay with PC-3. In addition, the GI50 was 1.86 µM (inactive) in the assay with SK-MEL-28; 13.8 µM (inactive) in the assay with SK-OV-3; 12.1 µM (inactive) in the assay with SNB-19; 2.59 µM (inactive) in the assay on SNB-75; 0.684 µM (active) in the assay with SR; 4.34 µM (inactive) in the assay with T47D. The GI50 was 2.59 µM (inactive) in the assay on TK-10 and 5.41 µM (inactive) in the assay with UO-31.
Turning to `Cc1cc(O)cc(O)c1C(=O)O[C@]1(C)C(=O)C=C2C=C(/C=C/C(=O)O)OC=C2C1=O`, the GI50 is > 100 µM (inactive) in the assay on A498; > 100 µM (inactive) with A549; > 100 µM (inactive) with CAKI-1; > 100 µM (inactive) with DU-145; over 100 µM in the assay with HCT-15; 94.4 µM (inactive) in the assay with HT-29. The GI50 is 41.7 µM (inactive) in the assay with KM12; 37.2 µM (inactive) in the assay with LOX IMVI; > 100 µM (inactive) in the assay on MDA-MB-231; 67.3 µM (inactive) with Malme-3M; > 100 µM (inactive) in the assay with NCI/ADR-RES; > 100 µM (inactive) with PC-3. Besides, the GI50 is > 100 µM (inactive) in the assay on SK-MEL-28; > 100 µM (inactive) in the assay with SK-OV-3; > 100 µM (inactive) in the assay on SNB-19; 0.76 µM (active) in the assay with SNB-75; 42.2 µM (inactive) with SR; > 100 µM (inactive) in the assay with T47D. The GI50 is 45.6 µM (inactive) in the assay on TK-10 and > 100 µM (inactive) with UO-31.
As to `COc1cc(Cc2cc3c(c(C(=O)O)c2Br)OCO3)cc(OC)c1OC`, the GI50 in the assay with A498 was > 100 µM (inactive); with A549, > 100 µM (inactive); in the assay with CAKI-1, > 100 µM (inactive); with DU-145 it was > 100 µM (inactive); in the assay on HCT-15 it was 41.6 µM; in the assay on HT-29, > 100 µM (inactive). In addition, the GI50 with KM12 is 39.9 µM (inactive); with LOX IMVI, 83.8 µM (inactive); with MDA-MB-231 it was > 100 µM (inactive); in the assay on Malme-3M, 57.8 µM (inactive); in the assay on NCI/ADR-RES, 85.3 µM (inactive); in the assay with PC-3, > 100 µM (inactive). Further, the GI50 with SK-MEL-28 was > 100 µM (inactive); with SK-OV-3 it was > 100 µM (inactive); in the assay on SNB-19, > 100 µM (inactive); with SNB-75, > 100 µM (inactive); in the assay with SR it was 52.6 µM (inactive); with T47D, > 100 µM (inactive). The GI50 with TK-10 and in the assay with UO-31 was > 100 µM (inactive) in each case.

The record behind these values is ChEMBL document CHEMBL1201862, “PubChem BioAssay data set” (2004).
